Experimental data from patent US12661410B2, “Compounds for targeted degradation of RET” (C4 Therapeutics, Inc., priority 2020, dated 2026).
Positions count from the first letter of the chain named. Like-named read-outs stand apart in the source and are kept apart here.

Tests used:
[1] = biological target: T1, RET (658-1114) (Homo sapiens, UniProt P07949); assay: HiBiT-Degradation, RET wild-type degradation assay (Nano-Glo HiBiT Lytic), 293T.144 cells; format: cell-based; conditions: for Emax / DC50: 6.0 hours
T1 construct: 658-1114; expressed in transfected cells; host or cells: 293T.144 (293T cells, generated in-house)
T1 sequence (P07949 658-1114): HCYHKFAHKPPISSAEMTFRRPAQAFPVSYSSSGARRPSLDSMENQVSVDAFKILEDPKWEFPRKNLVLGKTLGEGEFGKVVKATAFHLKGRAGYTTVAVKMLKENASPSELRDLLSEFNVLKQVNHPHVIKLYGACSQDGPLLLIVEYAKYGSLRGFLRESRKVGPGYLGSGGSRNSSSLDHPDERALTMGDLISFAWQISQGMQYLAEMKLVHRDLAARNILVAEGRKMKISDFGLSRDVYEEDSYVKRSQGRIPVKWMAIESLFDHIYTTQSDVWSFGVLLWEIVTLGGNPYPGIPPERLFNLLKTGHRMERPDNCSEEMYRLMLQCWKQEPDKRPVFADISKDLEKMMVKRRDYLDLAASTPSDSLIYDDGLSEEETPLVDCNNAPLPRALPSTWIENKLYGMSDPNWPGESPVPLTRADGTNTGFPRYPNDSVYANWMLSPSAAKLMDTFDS
Description: (§1) Dulbecco's modified Eagle medium (DMEM) no-phenol red media and fetal bovine serum (FBS) were purchased from Gibco (Grand Island, NY, USA). Cell lines ectopically expressing wild-type or G810R RET kinase domain fused with a HiBiT tag were generated in-house (293T. 144 and 293T. 165, respectively). Cell culture flasks and 384-well microplates were acquired from VWR (Radnor, PA, USA). The Nano-Glo® HiBiT Lytic Assay System was purchased from Promega (Madison, WI, USA).
(§2) RET wild-type (WT) and G810R degradation were assessed using the Nano-Glo® HiBiT Lytic assay (Promega, Medison, WI, USA). To determine the effect of degraders on protein levels, cells were plated in 384-well plates and treated with compounds of interest in duplicates for 6 hours using an 11-point half-log dilution series, with the highest dose set at 10 μM. Cell lysis and addition of the Nano-Glo® HiBiT Lytic Assay reagents was then performed. Luminescence signal was measured using an EnVision™ Multimode plate reader (Perkin Elmer, Santa Clara, CA, USA). The half-maximal degradation concentration (DC50) and % remaining protein (Emax) was then derived from the dose-response curves.

[2] = biological target: T2, RET(KD: 658-1114 G810R) (Homo sapiens, UniProt P07949, G810R); assay: HiBiT-Degradation, RET G810R degradation assay (Nano-Glo HiBiT Lytic), 293T.165 cells; format: cell-based; conditions: for Emax / DC50: 6.0 hours
T2 construct: 658-1114; expressed in transfected cells; host or cells: 293T.165 (293T cells, generated in-house)
T2 sequence (P07949 658-1114 G810R): T1 sequence (P07949 658-1114) with G153R
Description: as §1, §2

[3] = % remaining protein, read-out: 293T.144 RET (658-1114) 6.0 hours (Emax)
[4] = half-maximal degradation concentration, read-out: 293T.144 RET (658-1114) 6.0 hours (DC50)
[5] = % remaining protein, read-out: 293T.165 RET(KD: 658-1114 G810R) 6.0 hours (Emax)
[6] = half-maximal degradation concentration, read-out: 293T.165 RET(KD: 658-1114 G810R) 6.0 hours (DC50)
[7] = RET wild-type, read-out: HiBiT-Degradation 293T.144 RET (658-1114) 6.0 hours (DC50)
[8] = RET wild-type, read-out: HiBiT-Degradation 293T.144 RET (658-1114) 6.0 hours (Emax)
[9] = RET G810R, read-out: HiBiT-Degradation 293T.165 RET(KD: 658-1114 G810R) 6.0 hours (DC50)
[10] = RET G810R, read-out: HiBiT-Degradation 293T.165 RET(KD: 658-1114 G810R) 6.0 hours (Emax)

For `CCC1(C(=O)NC(C)(C)C)CCN(c2ccc(-c3nc(-c4cnn(C5CCN(C(=O)CC6(O)CCN(c7ccc(NC8CCC(=O)NC8=O)cc7Cl)CC6)CC5)c4)cn4ncc(C#N)c34)cn2)CC1` (stereo not shown) [Compound 102, N-tert-butyl-1-[5-[6-[1-[1-[2-[1-[2-chloro-4-[(2,6-dioxo-3-piperidyl)amino]phenyl]-4-hydroxy-4-piperidyl]acetyl]-4-piperidyl]pyrazol-4-yl]-3-cyano-pyrazolo[1,5-a]pyrazin-4-yl]-2-pyridyl]-4-ethyl-piperidine-4-carboxamide], the “293T.144 RET (658-1114) 6.0 hours (IP) [nM]” value [1] was “++++ (<50 nM = ++++)”, the Emax [1, 3] was under 30% and the DC50 [1, 4] was under 50 nM. The “293T.165 RET(KD: 658-1114 G810R) 6.0 hours (IP) [nM]” value [2] was “++++ (<50 nM = ++++)”, the Emax [2, 5] was under 30% and the DC50 [2, 6] was under 50 nM.

For `N#Cc1cnn2cc(-c3ccc(N4CCN(C(=O)CN5CCC(c6ccc(NC7CCC(=O)NC7=O)cc6)CC5)CC4)cc3)cc(-c3ccc(N4CCOCC4)nc3)c12` (stereo not shown) [Compound 24, 6-(4-(4-(2-(4-(4-((2,6-Dioxopiperidin-3-yl)amino)phenyl)piperidin-1-yl)acetyl)piperazin-1-yl)phenyl)-4-(6-morpholinopyridin-3-yl)pyrazolo[1,5-a]pyridine-3-carbonitrile], the “293T.144 RET (658-1114) 6.0 hours (IP) [nM]” value ([1]; HiBiT-Degradation) was “++++ (< 50 nM = ++++)”, the DC50 ([1]; HiBiT-Degradation, read-out: 293T.144 RET (658-1114) 6.0 hours (DC50)) was under 50 nM and the Emax ([1]; HiBiT-Degradation, read-out: 293T.144 RET (658-1114) 6.0 hours (Emax)) was under 30%. For the same compound, the Emax [2, 5] was under 50%, the DC50 [2, 6] was under 100 nM and the “293T.165 RET(KD: 658-1114 G810R) 6.0 hours (Emax)” value ([2]; HiBiT-Degradation) was “+++ (<50% = +++)”. The “293T.165 RET(KD: 658-1114 G810R) 6.0 hours (IP) [nM]” value ([2]; HiBiT-Degradation) was “++++ (< 50 nM = ++++)” and the DC50 ([2]; HiBiT-Degradation, read-out: 293T.165 RET(KD: 658-1114 G810R) 6.0 hours (DC50)) was under 100 nM.

For `CCC1(C(=O)NC[C@H]2C[C@@H](F)C2)CCN(c2ccc(-c3nc(-c4cnn([C@H]5CC[C@H](N6CCN(c7ccc(NC8CCC(=O)NC8=O)cc7F)CC6)CC5)c4)cn4ncc(C#N)c34)cn2)CC1` (stereo partly shown) [Compound 210, 1-[5-[3-cyano-6-[1-[4-[4-[4-[(2,6-dioxo-3-piperidyl)amino]-2-fluoro-phenyl]piperazin-1-yl]cyclohexyl]pyrazol-4-yl]pyrazolo[1,5-a]pyrazin-4-yl]-2-pyridyl]-4-ethyl-N-[(3-fluorocyclobutyl)methyl]piperidine-4-carboxamide], the “293T.144 RET (658-1114) 6.0 hours (IP) [nM]” value [1] was “++++ (<50 nM = ++++)”, the Emax [1, 3] was under 30% and the DC50 [1, 4] was under 50 nM. The “293T.165 RET(KD: 658-1114 G810R) 6.0 hours (IP) [nM]” value [2] was “++++ (<50 nM = ++++)”, the Emax [2, 5] was under 30% and the DC50 [2, 6] was under 100 nM.

In the case of `CCC1(C(=O)NC(C)C)CCN(c2ccc(-c3cc(-c4cnn([C@H]5CC[C@@H](N6CCC(c7ccc(NC8CCC(=O)NC8=O)cc7F)CC6)CC5)c4)cn4ncc(C#N)c34)cn2)CC1` (stereo partly shown) [Compound 88, 1-(5-(3-cyano-6-(1-((1s, 4s)-4-(4-(4-((2,6-dioxopiperidin-3-yl)amino)-2-fluorophenyl)piperidin-1-yl)cyclohexyl)-1H-pyrazol-4-yl)pyrazolo[1,5-a]pyridin-4-yl)pyridin-2-yl)-4-ethyl-N-isopropylpiperidine-4-carboxamide], the “HiBiT-Degradation 293T.144 RET (658-1114) 6.0 hours (IP) [nM]” value ([1]; RET wild-type) is reported as “++++ (< 50 nM = ++++)”, the DC50 [1, 7] is reported as under 50 nM and the Emax [1, 8] is reported as under 30%. The Emax [2, 5] was under 50%, the DC50 [2, 6] was under 1000 nM and the “HiBiT-Degradation 293T.165 RET(KD: 658-1114 G810R) 6.0 hours (IP) [nM]” value ([2]; RET G810R) was “++++ (< 50 nM = ++++)”. For the same compound, the DC50 [2, 9] was under 1000 nM and the Emax [2, 10] was under 50%.

`CN(Cc1ccc(-c2cn3ncc(C#N)c3c(-c3ccc(N4CCN(Cc5ccccn5)CC4)nc3)n2)cc1)C(=O)CN1CCC(c2ccc(NC3CCC(=O)NC3=O)cc2)CC1` (stereo not shown) [Compound 83, N-[[4-[3-cyano-4-[6-[4-(2-pyridylmethyl)piperazin-1-yl]-3-pyridyl]pyrazolo[1,5-a]pyrazin-6-yl]phenyl]methyl]-2-[4-[4-[(2,6-dioxo-3-piperidyl)amino]phenyl]-1-piperidyl]-N-methyl-acetamide] was tested, and the “HiBiT-Degradation 293T.144 RET (658-1114) 6.0 hours (IP) [nM]” value ([1]; RET wild-type) was “++++ (< 50 nM = ++++)”, the DC50 [1, 7] was under 50 nM and the Emax [1, 8] was under 30%. For the same compound, the Emax [2, 5] was under 50%, the DC50 [2, 6] was under 100 nM and the “HiBiT-Degradation 293T.165 RET(KD: 658-1114 G810R) 6.0 hours (IP) [nM]” value ([2]; RET G810R) was “++++ (< 50 nM = ++++)”. The DC50 [2, 9] was under 100 nM and the Emax [2, 10] was under 50%.

Compound `CCC1(C(=O)NC(C)C)CCN(c2ccc(-c3cc(-c4ccc(N5CCN(C(=O)CN6CCC(c7ccc(C8CCC(=O)NC8=O)cc7)CC6)CC5)cc4)cn4ncc(C#N)c34)cn2)CC1` (stereo not shown) [Compound 29, 1-(5-(3-Cyano-6-(4-(4-(2-(4-(4-(2,6-dioxopiperidin-3-yl)phenyl)piperidin-1-yl)acetyl)piperazin-1-yl)phenyl)pyrazolo[1,5-a]pyridin-4-yl)pyridin-2-yl)-4-ethyl-N-isopropylpiperidine-4-carboxamide] has an Emax [2, 5] of under 50% and a DC50 [2, 6] of under 1000 nM.

Work on `CCC1(C(=O)N[C@H](C)C(F)(F)F)CCN(c2ccc(-c3cc(-c4cnn(C5CCN(C(=O)CN6CCC(c7ccc(NC8CCC(=O)NC8=O)cc7F)CC6)CC5)c4)cn4ncc(C#N)c34)cn2)CC1` (stereo partly drawn) [Compound 7, 1-[5-[3-cyano-6-[1-[1-[2-[4-[4-[(2,6-dioxo-3-piperidyl)amino]-2-fluoro-phenyl]-1-piperidyl]acetyl]-4-piperidyl]pyrazol-4-yl]pyrazolo[1,5-a]pyridin-4-yl]-2-pyridyl]-4-ethyl-N-[(1R)-2,2,2-trifluoro-1-methyl-ethyl]piperidine-4-carboxamide] yielded an Emax [2, 5] of under 50% and a DC50 [2, 6] of under 1000 nM.

In the case of `CC(C)NC(=O)C1(C)CCN(c2ccc(-c3cc(-c4ccc(N5CCN(C(=O)CC6(O)CCN(c7ccc(CN8CCC(=O)NC8=O)cc7)CC6)CC5)cc4)cn4ncc(C#N)c34)cn2)CC1` [Compound 33, 1-[5-[3-cyano-6-[4-[4-[2-[1-[4-[(2,4-dioxohexahydropyrimidin-1-yl)methyl]phenyl]-4-hydroxy-4-piperidyl]acetyl]piperazin-1-yl]phenyl]pyrazolo[1,5-a]pyridin-4-yl]-2-pyridyl]-N-isopropyl-4-methyl-piperidine-4-carboxamide], the Emax [2, 5] is reported as under 70% and the DC50 [2, 6] is reported as over 1000 nM.

`CCC1(C(=O)NC(C)C)CCN(c2ccc(-c3cc(-c4cnc(N5CCN(C(=O)CN6CCC(c7ccc(NC8CCC(=O)NC8=O)cc7F)CC6)CC5)nc4)cn4ncc(C#N)c34)cn2)CC1` (stereo not shown) [Compound 37, 1-(5-(3-Cyano-6-(2-(4-(2-(4-(4-((2,6-dioxopiperidin-3-yl)amino)-2-fluorophenyl)piperidin-1-yl)acetyl)piperazin-1-yl)pyrimidin-5-yl)pyrazolo[1,5-a]pyridin-4-yl)pyridin-2-yl)-4-ethyl-N-isopropylpiperidine-4-carboxamide] was tested, and the Emax [2, 5] was under 50% and the DC50 [2, 6] was under 1000 nM.

`N#Cc1cnn2cc(-c3ccc(N4CCN(C(=O)CN5CCC(c6ccc(NC7CCC(=O)NC7=O)cc6)CC5)CC4)cc3)cc(-c3ccc(C4(CO)CCCCC4)nc3)c12` (stereo not shown) [Compound 21, 6-(4-(4-(2-(4-(4-((2,6-Dioxopiperidin-3-yl)amino)phenyl)piperidin-1-yl)acetyl)piperazin-1-yl)phenyl)-4-(6-(1-(hydroxymethyl)cyclohexyl)pyridin-3-yl)pyrazolo[1,5-a]pyridine-3-carbonitrile] showed an Emax [2, 5] of under 50% and a DC50 [2, 6] of under 1000 nM.
